Results reported in patent US20260250325A1, “Antiviral Polypeptide Membrane Fusion Inhibitor, and Preparation Method and Application Thereof” (priority 2025, published 2026).
Where a SMILES comes first, the peptide text is derived from it. The star is where a group is joined. Succinyl(4-O-cholesteryl) = CC(C)CCC[C@@H](C)[C@H]1CC[C@H]2[C@@H]3CC=C4C[C@@H](OC(=O)CCC(=O)*)CC[C@]4(C)[C@H]3CC[C@]12C

Test system: RSV A2 virus strain
Assay: Mouse RSV A2 challenge protection, lung viral titer by plaque method
Assay type: in vivo, BALB/c mice
Settings: for Mean (PFU/g lung): BALB/c mice, tracheal nebulization 1 mg/kg QD for 5 days, lung collected 2 h after final administration on Day 4; for effect on viral titer in lung tissue (in words): mice, tracheal nebulization once daily for 5 days
Method: Female BALB/c mice were from Shanghai Yishang Biotechnology Co., Ltd. HEp- 2 were from the ATCC, with a catalog number CCL-23. The cells were cultured in a DMEM medium solution in which 10% (v/v) fetal bovine serum and 1% penicillin and streptomycin were added. The RSV A2 virus strain was from the ATCC, with a catalog number VR-1540.
Eight-week-old female BALB/c mice were grouped based on body weight (n=6). All animals were intranasally challenged with RSV on Day 0 at a challenge dosage of 1×10^6 pfu (20 μL) per animal. Administration began 1 h after Day 0 challenge; the polypeptide sample, positive control, and solvent control were administered via tracheal nebulization once daily for 5 consecutive days (see Table 3 below for administration dosage and administration frequency). Lung tissue was collected from all animals 2 h after the final administration on Day 4; left lung tissue was rapidly frozen in a virus protection solution with a 10-fold volume and stored below −70° C.; and a viral titer was detected by using a plaque method.
For analysis, the lung RSV A2 virus was determined by performing a tissue homogenate viral load plaque method. In short, on the day prior to sample detection, the HEp-2 cells were inoculated into a 12-well plate (spreading density being 0.3×10^6 cells/mL, with 1000 μL of cell suspension per well) according to a standard HEp-2 cell culture operation procedure. On the day of incubation, the supernatant was taken from the tissue sample that was homogenized using a tissue homogenizer (maintaining a low-temperature environment), and the supernatant was taken after centrifugation. The tissue homogenate sample was diluted with serum-free DMEM, and inoculated into a 12-well plate at a final volume of 400 μL. After 2 h of incubation, the homogenate supernatant was discarded, and 1.5 mL of a covering layer (cell culture medium containing 1% soft agar) was added to each well and cultured in the incubator for approximately 72 h. The covering layer was discarded, the cells were fixed, blocking was performed by using a blocking solution, dyeing was performed with HRP-RSVG, development and air drying were terminated with pure water. Colored spots on the well plate were counted by using a fluorescent (enzyme-linked) immunoassay spot analyzer, and the viral titer was expressed as a plaque-forming unit per gram of tissue (PFU/g). The viral titer was calculated as an arithmetic mean±standard error of all animals in a group.
One hour after RSV A2 challenge in mice, compounds 13, 14, 17, 19, 20, 21, 26, 27, 28, and 40 were administered via tracheal nebulization once daily for 5 consecutive days; and 2 h after the final administration, lung tissue was collected from all groups for viral plaque detection, and results were shown in Table 3.

Row | Compound | Mean (PFU/g lung) | effect on viral titer in lung tissue (in words)
1 | CC[C@H](C)[C@H](NC(=O)[C@H](CCCCN)NC(=O)[C@H](CCCCN)NC(=O)[C@H](CC(C)C)NC(=O)[C@H](CO)NC(=O)[C@H](CCC(=O)O)NC(=O)[C@H](CCC(=O)O)NC(=O)[C@@H](NC(=O)[C@H](CCCCN)NC(=O)[C@H](CCCCN)NC(=O)[C@H](CC(N)=O)NC(=O)[C@@H](NC(=O)[C@H](CCC(=O)O)NC(=O)[C@H](CCC(=O)O)NC(=O)[C@@H](NC(=O)[C@H](CCCCN)NC(=O)[C@H](CCCCN)NC(=O)[C@H](CC(=O)O)NC(=O)[C@H](Cc1ccccc1)NC(=O)[C@H](CCC(=O)O)NC(=O)[C@H](CC(=O)O)NC(=O)[C@H](Cc1c[nH]c2ccccc12)NC(C)=O)[C@@H](C)CC)C(C)C)[C@@H](C)CC)C(=O)N[C@@H](CCC(=O)O)C(=O)N[C@@H](CCC(=O)O)C(=O)N[C@@H](CO)C(=O)N[C@@H](CC(=O)O)C(=O)N[C@@H](CCCCN)C(=O)N[C@@H](CCCCN)C(=O)N[C@@H](CC(C)C)C(=O)N[C@@H](CCC(=O)O)C(=O)N[C@@H](C)C(=O)N[C@@H](C)C(=O)N[C@@H](C)C(=O)N[C@@H](CCCCN)C(=O)N[C@@H](CCCCNC(=O)CCC(=O)O[C@H]1CC[C@@]2(C)C(=CC[C@H]3[C@@H]4CC[C@H]([C@H](C)CCCC(C)C)[C@@]4(C)CC[C@@H]32)C1)C(N)=O [Compound 13] (Ac-WDEFDKKIEEVNKKIEESLKKIEESDKKLEAAAKK(Succinyl(4-O-cholesteryl))-NH2) | 5380 PFU/g lung | significantly reduce the viral titer in lung tissue
2 | CC[C@H](C)[C@H](NC(=O)[C@H](CCCCN)NC(=O)[C@H](CCCCN)NC(=O)[C@H](CC(C)C)NC(=O)[C@H](CO)NC(=O)[C@H](CCC(=O)O)NC(=O)[C@H](CCC(=O)O)NC(=O)[C@@H](NC(=O)[C@H](CCCCN)NC(=O)[C@H](CCCCN)NC(=O)[C@H](CC(N)=O)NC(=O)[C@@H](NC(=O)[C@H](CCC(=O)O)NC(=O)[C@H](CCC(=O)O)NC(=O)[C@@H](NC(=O)[C@H](CCCCN)NC(=O)[C@H](CCCCN)NC(=O)[C@H](CC(=O)O)NC(=O)[C@H](Cc1ccccc1)NC(=O)[C@H](CCC(=O)O)NC(=O)[C@H](CC(=O)O)NC(=O)[C@H](CO)NC(C)=O)[C@@H](C)CC)C(C)C)[C@@H](C)CC)C(=O)N[C@@H](CCC(=O)O)C(=O)N[C@@H](CCC(=O)O)C(=O)N[C@@H](CO)C(=O)N[C@@H](CC(=O)O)C(=O)N[C@@H](CCCCN)C(=O)N[C@@H](CCCCN)C(=O)N[C@@H](CC(C)C)C(=O)NCC(=O)N[C@@H](CO)C(=O)NCC(=O)N[C@@H](CO)C(=O)NCC(=O)N[C@@H](CCCCNC(=O)CCC(=O)O[C@H]1CC[C@@]2(C)C(=CC[C@H]3[C@@H]4CC[C@H]([C@H](C)CCCC(C)C)[C@@]4(C)CC[C@@H]32)C1)C(N)=O [Compound 20] (Ac-SDEFDKKIEEVNKKIEESLKKIEESDKKLGSGSGK(Succinyl(4-O-cholesteryl))-NH2) | 8928 PFU/g lung | significantly reduce the viral titer in lung tissue
3 | CC[C@H](C)[C@H](NC(=O)[C@H](CO)NC(=O)[C@H](C)NC(=O)[C@H](CC(=O)O)NC(=O)[C@H](Cc1ccccc1)NC(=O)[C@H](CCC(=O)O)NC(=O)[C@H](CC(=O)O)NC(C)=O)C(=O)N[C@@H](CO)C(=O)N[C@@H](CCC(N)=O)C(=O)N[C@H](C(=O)N[C@@H](CC(N)=O)C(=O)N[C@@H](CCC(=O)O)C(=O)N[C@@H](CCCCN)C(=O)N[C@H](C(=O)N[C@@H](CC(N)=O)C(=O)N[C@@H](CCC(N)=O)C(=O)N[C@@H](CO)C(=O)N[C@@H](CC(C)C)C(=O)N[C@@H](CCC(=O)O)C(=O)N[C@@H](CCC(=O)O)C(=O)N[C@H](C(=O)N[C@@H](CCCNC(=N)N)C(=O)N[C@@H](CCCCN)C(=O)N[C@@H](CO)C(=O)N[C@@H](CC(=O)O)C(=O)N[C@@H](CCC(=O)O)C(=O)N[C@@H](CC(C)C)C(=O)N[C@@H](CC(C)C)C(=O)N[C@@H](Cc1c[nH]cn1)C(=O)N[C@@H](CC(N)=O)C(=O)N[C@@H](CCC(=O)O)C(=O)N[C@@H](C)C(=O)N[C@@H](C)C(=O)N[C@@H](C)C(=O)N[C@@H](CCCCN)C(=O)N[C@@H](CCCCNC(=O)CCC(=O)O[C@H]1CC[C@@]2(C)C(=CC[C@H]3[C@@H]4CC[C@H]([C@H](C)CCCC(C)C)[C@@]4(C)CC[C@@H]32)C1)C(N)=O)[C@@H](C)CC)[C@@H](C)CC)C(C)C [Compound 28] (Ac-DEFDASISQVNEKINQSLEEIRKSDELLHNEAAAKK(Succinyl(4-O-cholesteryl))-NH2) | 8425 PFU/g lung | significantly reduce the viral titer in lung tissue
4 | CC[C@H](C)[C@H](NC(=O)[C@H](CCCCN)NC(=O)[C@H](CCCCN)NC(=O)[C@H](CC(C)C)NC(=O)[C@H](CO)NC(=O)[C@H](CCC(=O)O)NC(=O)[C@H](CCC(=O)O)NC(=O)[C@@H](NC(=O)[C@H](CCCCN)NC(=O)[C@H](CCCCN)NC(=O)[C@H](CC(N)=O)NC(=O)[C@@H](NC(=O)[C@H](CCC(=O)O)NC(=O)[C@H](CCC(=O)O)NC(=O)[C@@H](NC(=O)[C@H](CCCCN)NC(=O)[C@H](CCCCN)NC(=O)[C@H](CC(=O)O)NC(=O)[C@H](Cc1ccccc1)NC(=O)[C@H](CCC(=O)O)NC(=O)[C@H](CC(=O)O)NC(=O)[C@H](Cc1c[nH]c2ccccc12)NC(C)=O)[C@@H](C)CC)C(C)C)[C@@H](C)CC)C(=O)N[C@@H](CCC(=O)O)C(=O)N[C@@H](CCC(=O)O)C(=O)N[C@@H](CO)C(=O)N[C@@H](CC(=O)O)C(=O)N[C@@H](CCCCN)C(=O)N[C@@H](CCCCN)C(=O)N[C@@H](CC(C)C)C(=O)N[C@@H](CCC(=O)O)C(=O)N[C@@H](CCC(=O)O)C(=O)N[C@H](C(=O)N[C@@H](CC(N)=O)C(=O)N[C@@H](C)C(=O)N[C@@H](CCC(=O)O)C(=O)N[C@@H](C)C(=O)N[C@@H](C)C(=O)N[C@@H](C)C(=O)N[C@@H](CCCCN)C(=O)N[C@@H](CCCCNC(=O)CCC(=O)O[C@H]1CC[C@@]2(C)C(=CC[C@H]3[C@@H]4CC[C@H]([C@H](C)CCCC(C)C)[C@@]4(C)CC[C@@H]32)C1)C(N)=O)C(C)C [Compound 40] (Ac-WDEFDKKIEEVNKKIEESLKKIEESDKKLEEVNAEAAAKK(Succinyl(4-O-cholesteryl))-NH2) | 5678 PFU/g lung | significantly reduce the viral titer in lung tissue
5 | Ac-FDEEISQVNEKINQSLAFIRKSDELLHNVNAGKSTTEAAAKK(Succinyl(4-O-cholesteryl))-NH2 [Compound 26] | 5015 PFU/g lung | significantly reduce the viral titer in lung tissue
6 | Ac-WDEFDASISQVNEKINQSLEEIRKSDELLHNVNAGLGSGSGK(Succinyl(4-O-cholesteryl))-NH2 [Compound 27] | 9458 PFU/g lung | significantly reduce the viral titer in lung tissue
